Experiments:
aMCI subjects [1] = assay: explicit 3-alternative forced choice task (lure images), cognitive performance; format: in vivo, human; conditions: 125 mg twice a day for two weeks, versus placebo
Description: There are various tests known in the art for assessing cognitive function in humans, for example and without limitation, the clinical global impression of change scale (CIBIC-plus scale); the Mini Mental State Exam (MMSE); the Neuropsychiatric Inventory (NPI); the Clinical Dementia Rating Scale (CDR); the Cambridge Neuropsychological Test Automated Battery (CANTAB); the Sandoz Clinical Assessment-Geriatric (SCAG), the Buschke Selective Reminding Test (Buschke and Fuld, 1974); the Verbal Paired Associates subtest; the Logical Memory subtest; the Visual Reproduction subtest of the Wechsler Memory Scale-Revised (WMS-R) (Wechsler, 1997); the Benton Visual Retention Test, or MATRICS consensus neuropsychological test battery which includes tests of working memory, speed of processing, attention, verbal learning, visual learning, reasoning and problem solving and social cognition. […]
As described above, the drug treatment period is the two weeks preceding Visit 1 or 2 (with the two week period preceding the other Visit being the placebo phase). For the subjects receiving the drug treatment, half a scored 250 mg tablet of levetiracetam is used to achieve a dose of […], which is approximately 3.6 mg/kg/day (assuming an average adult human weight of 70 kg). […]

aMCI subjects [2] = assay: Benton Visual Retention Test; format: in vivo, human; conditions: 125 mg twice a day for two weeks
Protocol: A within-subjects trial of 8 weeks duration, involving 17 amnestic MCI (aMCI) subjects and 17 age-matched controls with a low dose treatment of levetiracetam is conducted. During the course of the study, each aMCI subject receives both drug and placebo treatments separately in two periods of two weeks each, with the order of treatments among different aMCI subjects counterbalanced (see FIG. 7). Age-matched control subjects treated with placebo serve as a further control. Cognitive testing and fMRI imaging data are obtained from the subjects after each two week period of drug/placebo treatment.
All participants undergo neuropsychological evaluation at the time of assessment for treatment efficacy (Visits 1 and 2), as well as at the Baseline Visit. […]
As described above, the drug treatment period is the two weeks preceding Visit 1 or 2 (with the two week period preceding the other Visit being the placebo phase). For the subjects receiving the drug treatment, half a scored 250 mg tablet of levetiracetam is used to achieve a dose of […], which is approximately 3.6 mg/kg/day (assuming an average adult human weight of 70 kg).

Compound: CC[C@@H](C(N)=O)N1CCCC1=O [levetiracetam, (2S)-2-(2-oxopyrrolidin-1-yl) butanamide]
- performance in the explicit 3-alternative forced choice task (aMCI subjects [1]): improves significantly
- performance in Benton Visual Retention Test (aMCI subjects [2]): fail to rescue performance
